Results as given in the supplement of paper PMC10307832.

How the values were obtained:
Test in all cases: relative viability (nuclei count vs DMSO), 5 days (fraction); higher = more cells survive
Decitabine + Pictilisib = compound: Nc1ncn([C@H]2C[C@H](O)[C@@H](CO)O2)c(=O)n1 [Decitabine] + CS(=O)(=O)N1CCN(Cc2cc3nc(-c4cccc5[nH]ncc45)nc(N4CCOCC4)c3s2)CC1 [Pictilisib] (partner 1 µM)
Outline: (§1)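 Lung cancer cell lines in 1536-well plates got either a single drug or a fixed anchor-drug dose together with five library-drug doses (not always all listed) in √10 steps, by pin tool, on the day after seeding. Nuclei were counted after 5 days, and relative viability is the treated-to-vehicle ratio of nuclei counts. Values are medians of duplicate plates.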

Cediranib + Trametinib = compound: COc1cc2c(Oc3ccc4[nH]c(C)cc4c3F)ncnc2cc1OCCCN1CCCC1 [Cediranib] + CC(=O)Nc1cccc(-n2c(=O)n(C3CC3)c(=O)c3c(Nc4ccc(I)cc4F)n(C)c(=O)c(C)c32)c1 [Trametinib] (partner 0.02 µM)
Outline: as §1

Cediranib + Bortezomib = compound: COc1cc2c(Oc3ccc4[nH]c(C)cc4c3F)ncnc2cc1OCCCN1CCCC1 [Cediranib] + CC(C)C[C@H](NC(=O)[C@H](Cc1ccccc1)NC(=O)c1cnccn1)B(O)O [Bortezomib] (partner 0.002 µM)
Outline: as §1

Cediranib + Crizotinib = compound: COc1cc2c(Oc3ccc4[nH]c(C)cc4c3F)ncnc2cc1OCCCN1CCCC1 [Cediranib] + C[C@@H](Oc1cc(-c2cnn(C3CCNCC3)c2)cnc1N)c1c(Cl)ccc(F)c1Cl [Crizotinib] (partner 1 µM)
Outline: as §1

HOP-62
relative viability (Decitabine + Pictilisib; first compound 0.04 µM): 0.668
relative viability (Decitabine + Pictilisib; first compound 0.1265 µM): 0.585
relative viability (Decitabine + Pictilisib; first compound 0.4 µM): 0.239
relative viability (Decitabine + Pictilisib; first compound 1.265 µM): 0.159
relative viability (Decitabine + Pictilisib; first compound 4 µM): 0.162
relative viability (Cediranib + Trametinib; first compound 0.04 µM): 0.442
relative viability (Cediranib + Trametinib; first compound 0.1265 µM): 0.404
relative viability (Cediranib + Trametinib; first compound 0.4 µM): 0.346
relative viability (Cediranib + Trametinib; first compound 1.265 µM): 0.387
relative viability (Cediranib + Trametinib; first compound 4 µM): 0.42
relative viability (Cediranib + Bortezomib; first compound 0.04 µM): 0.322
relative viability (Cediranib + Bortezomib; first compound 0.4 µM): 0.672
relative viability (Cediranib + Bortezomib; first compound 1.265 µM): 0.68
relative viability (Cediranib + Bortezomib; first compound 4 µM): 0.842
relative viability (Cediranib + Crizotinib; first compound 0.04 µM): 0.802
relative viability (Cediranib + Crizotinib; first compound 0.4 µM): 0.886
relative viability (Cediranib + Crizotinib; first compound 1.265 µM): 0.858
relative viability (Cediranib + Crizotinib; first compound 4 µM): 1.1

EKVX
relative viability (Decitabine + Pictilisib; first compound 0.04 µM): 0.37
relative viability (Decitabine + Pictilisib; first compound 0.1265 µM): 0.387
relative viability (Decitabine + Pictilisib; first compound 0.4 µM): 0.391
relative viability (Decitabine + Pictilisib; first compound 1.265 µM): 0.252
relative viability (Decitabine + Pictilisib; first compound 4 µM): 0.241
relative viability (Cediranib + Trametinib; first compound 0.04 µM): 0.283
relative viability (Cediranib + Trametinib; first compound 0.1265 µM): 0.4
relative viability (Cediranib + Trametinib; first compound 0.4 µM): 0.343
relative viability (Cediranib + Trametinib; first compound 4 µM): 0.402
relative viability (Cediranib + Bortezomib; first compound 0.04 µM): 1.12
relative viability (Cediranib + Bortezomib; first compound 0.1265 µM): 0.892
relative viability (Cediranib + Bortezomib; first compound 0.4 µM): 0.975
relative viability (Cediranib + Bortezomib; first compound 1.265 µM): 0.939
relative viability (Cediranib + Bortezomib; first compound 4 µM): 0.865
relative viability (Cediranib + Crizotinib; first compound 0.04 µM): 0.933
relative viability (Cediranib + Crizotinib; first compound 0.1265 µM): 0.92
relative viability (Cediranib + Crizotinib; first compound 0.4 µM): 0.936
relative viability (Cediranib + Crizotinib; first compound 1.265 µM): 0.895
relative viability (Cediranib + Crizotinib; first compound 4 µM): 0.975

EMC-BAC-2
relative viability (Decitabine + Pictilisib; first compound 0.04 µM): 0.529
relative viability (Decitabine + Pictilisib; first compound 0.1265 µM): 0.557
relative viability (Decitabine + Pictilisib; first compound 0.4 µM): 0.468
relative viability (Decitabine + Pictilisib; first compound 1.265 µM): 0.411
relative viability (Decitabine + Pictilisib; first compound 4 µM): 0.37
relative viability (Cediranib + Trametinib; first compound 0.04 µM): 0.823
relative viability (Cediranib + Trametinib; first compound 0.4 µM): 0.842
relative viability (Cediranib + Trametinib; first compound 1.265 µM): 0.82
relative viability (Cediranib + Trametinib; first compound 4 µM): 0.923
relative viability (Cediranib + Bortezomib; first compound 0.04 µM): 1.06
relative viability (Cediranib + Bortezomib; first compound 0.1265 µM): 0.69
relative viability (Cediranib + Bortezomib; first compound 0.4 µM): 1.03
relative viability (Cediranib + Bortezomib; first compound 1.265 µM): 1.02
relative viability (Cediranib + Bortezomib; first compound 4 µM): 1.07
relative viability (Cediranib + Crizotinib; first compound 0.04 µM): 0.782
relative viability (Cediranib + Crizotinib; first compound 0.1265 µM): 0.703
relative viability (Cediranib + Crizotinib; first compound 0.4 µM): 0.754
relative viability (Cediranib + Crizotinib; first compound 1.265 µM): 0.785
relative viability (Cediranib + Crizotinib; first compound 4 µM): 0.853

HARA
relative viability (Decitabine + Pictilisib; first compound 0.04 µM): 0.367
relative viability (Decitabine + Pictilisib; first compound 0.1265 µM): 0.564
relative viability (Decitabine + Pictilisib; first compound 0.4 µM): 0.285
relative viability (Decitabine + Pictilisib; first compound 1.265 µM): 0.236
relative viability (Decitabine + Pictilisib; first compound 4 µM): 0.15
relative viability (Cediranib + Trametinib; first compound 0.04 µM): 0.803
relative viability (Cediranib + Trametinib; first compound 0.1265 µM): 0.81
relative viability (Cediranib + Trametinib; first compound 0.4 µM): 0.62
relative viability (Cediranib + Trametinib; first compound 1.265 µM): 0.882
relative viability (Cediranib + Trametinib; first compound 4 µM): 0.831
relative viability (Cediranib + Bortezomib; first compound 0.04 µM): 1.18
relative viability (Cediranib + Bortezomib; first compound 0.1265 µM): 1.01
relative viability (Cediranib + Bortezomib; first compound 0.4 µM): 1.11
relative viability (Cediranib + Bortezomib; first compound 1.265 µM): 1.14
relative viability (Cediranib + Bortezomib; first compound 4 µM): 1.07
relative viability (Cediranib + Crizotinib; first compound 0.04 µM): 1.07
relative viability (Cediranib + Crizotinib; first compound 0.1265 µM): 1.15
relative viability (Cediranib + Crizotinib; first compound 0.4 µM): 0.991
relative viability (Cediranib + Crizotinib; first compound 1.265 µM): 1.02
relative viability (Cediranib + Crizotinib; first compound 4 µM): 1.03

LU99A
relative viability (Decitabine + Pictilisib; first compound 0.04 µM): 0.369
relative viability (Decitabine + Pictilisib; first compound 0.1265 µM): 0.325
relative viability (Decitabine + Pictilisib; first compound 0.4 µM): 0.355
relative viability (Decitabine + Pictilisib; first compound 1.265 µM): 0.308
relative viability (Decitabine + Pictilisib; first compound 4 µM): 0.311
relative viability (Cediranib + Trametinib; first compound 0.04 µM): 0.553
relative viability (Cediranib + Trametinib; first compound 0.4 µM): 0.544
relative viability (Cediranib + Trametinib; first compound 1.265 µM): 0.515
relative viability (Cediranib + Trametinib; first compound 4 µM): 0.568
relative viability (Cediranib + Bortezomib; first compound 0.04 µM): 1.27
relative viability (Cediranib + Bortezomib; first compound 0.4 µM): 1.12
relative viability (Cediranib + Bortezomib; first compound 1.265 µM): 0.942
relative viability (Cediranib + Bortezomib; first compound 4 µM): 1.17
relative viability (Cediranib + Crizotinib; first compound 0.04 µM): 0.639
relative viability (Cediranib + Crizotinib; first compound 0.4 µM): 0.59
relative viability (Cediranib + Crizotinib; first compound 1.265 µM): 0.547
relative viability (Cediranib + Crizotinib; first compound 4 µM): 0.649

NCI-H441
relative viability (Decitabine + Pictilisib; first compound 0.04 µM): 0.28
relative viability (Decitabine + Pictilisib; first compound 0.1265 µM): 0.306
relative viability (Decitabine + Pictilisib; first compound 0.4 µM): 0.286
relative viability (Decitabine + Pictilisib; first compound 1.265 µM): 0.205
relative viability (Decitabine + Pictilisib; first compound 4 µM): 0.179
relative viability (Cediranib + Trametinib; first compound 0.04 µM): 0.631
relative viability (Cediranib + Trametinib; first compound 0.1265 µM): 0.504
relative viability (Cediranib + Trametinib; first compound 0.4 µM): 0.408
relative viability (Cediranib + Trametinib; first compound 1.265 µM): 0.483
relative viability (Cediranib + Trametinib; first compound 4 µM): 0.399
relative viability (Cediranib + Bortezomib; first compound 0.04 µM): 0.304
relative viability (Cediranib + Bortezomib; first compound 0.1265 µM): 0.688
relative viability (Cediranib + Bortezomib; first compound 1.265 µM): 0.498
relative viability (Cediranib + Bortezomib; first compound 4 µM): 0.934
relative viability (Cediranib + Crizotinib; first compound 0.04 µM): 0.78
relative viability (Cediranib + Crizotinib; first compound 0.1265 µM): 0.76
relative viability (Cediranib + Crizotinib; first compound 0.4 µM): 1.02
relative viability (Cediranib + Crizotinib; first compound 1.265 µM): 0.504
relative viability (Cediranib + Crizotinib; first compound 4 µM): 0.735
